Molecules are shown by their SMILES.

This test has as its target T1, acyl-CoA:cholesterol acyl transferase (ACAT) (Rattus norvegicus, UniProt Q7TQM4).
T1 construct: small intestine mucosal microsome fraction of a 6-week-old male Sprague-Dawley rat; from tissue; host or cells: rat small intestine mucosa, microsome fraction
T1 sequence (Q7TQM4 1-524): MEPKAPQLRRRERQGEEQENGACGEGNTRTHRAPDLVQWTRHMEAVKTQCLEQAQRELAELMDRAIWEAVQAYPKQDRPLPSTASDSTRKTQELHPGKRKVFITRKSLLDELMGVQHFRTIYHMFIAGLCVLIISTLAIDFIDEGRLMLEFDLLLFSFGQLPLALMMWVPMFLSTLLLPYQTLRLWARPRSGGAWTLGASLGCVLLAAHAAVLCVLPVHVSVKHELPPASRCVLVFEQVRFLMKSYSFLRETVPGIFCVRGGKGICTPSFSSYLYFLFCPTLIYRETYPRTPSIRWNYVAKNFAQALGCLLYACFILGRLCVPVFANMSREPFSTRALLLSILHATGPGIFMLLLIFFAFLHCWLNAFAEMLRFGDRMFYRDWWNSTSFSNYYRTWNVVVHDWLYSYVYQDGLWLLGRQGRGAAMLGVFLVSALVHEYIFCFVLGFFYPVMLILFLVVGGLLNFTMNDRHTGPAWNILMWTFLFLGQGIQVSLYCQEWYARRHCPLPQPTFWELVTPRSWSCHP
Kind of test: Inhibitory action against acyl-CoA:cholesterol acyl transferase (ACAT), formation of labeled cholesterol ester, small intestine mucosal microsome fraction. To be noted: 10^-6 M; read-out: ACAT Inhibitory Rate (%). It is filed as biochemical, male Sprague-Dawley rat. The method, then:
An ACAT enzyme preparation was prepared from a small intestine mucosal microsome fraction of a 6-week-old male Sprague-Dawley rat, previously fasted for 20 hours, in accordance with the method described by Heider et al. in the Journal of Lipid Research, Vol. 24, page 1127 (1982).
ACAT activity was determined by measuring the amount of labeled cholesterol ester produced from [1-^14 C]-oleoyl-CoA and endogenous cholesterol, in accordance with the method of Helgerud et al. [Journal of Lipid Research, Vol. 22, page 271 (1981)].
As to `Cc1ccc2oc(=O)c(CC(=O)Nc3c(C(C)C)cccc3C(C)C)c(-c3ccccc3)c2c1` [Example 53, N-[2,6-Bis(1-methylethyl)phenyl]-6-methyl-2-oxo-4-phenyl-2H-1-benzopyran-3-acetamide], the inhibition at 1 µM stood at 99.7%. Take `COc1cc(OC)c(NC(=O)Cc2c(-c3ccccc3C)c3cc(Cl)ccc3oc2=O)c(OC)c1` [Example 85, 6-Chloro-4-(2-methylphenyl)-2-oxo-N-(2,4,6-trimethoxyphenyl)-2H-1-benzopyran-3-acetamide]: the inhibition at 1 µM turned out to be 99.5%. The figure for `CC(C)c1cccc(C(C)C)c1NC(=O)C[C@@H]1C(=O)N(C)c2ccc(Cl)cc2[C@H]1c1ccccc1Cl` (relative stereo) [Example 21, 3,4-trans-N-[2,6-Bis(1-methylethyl)phenyl]-6-chloro-4-(2-chlorophenyl)-1,2,3,4-tetrahydro-1-methyl-2-oxo-3-quinolineacetamide] is 99.3%; for `CC(C)c1cccc(C(C)C)c1NC(=O)C[C@@H]1C(=O)N(C)c2ccc(Cl)cc2[C@H]1c1ccccc1` (relative stereo) [Example 33, 3,4-trans-N-[2,6-Bis(1-methylethyl)phenyl]-6-chloro-1,2,3,4-tetrahydro-1-methyl-2-oxo-4-phenyl-3-quinolineacetamide] it is 98.9%; for `Cc1cccc(C)c1NC(=O)C[C@@H]1C(=O)N(C)c2ccc(Cl)cc2[C@H]1c1ccccc1` (relative stereo) [Example 29, 3,4-trans-6-Chloro-N-(2,6-dimethylphenyl)-1,2,3,4-tetrahydro-1-methyl-2-oxo-4-phenyl-3-quinolineacetamide] it is 98.4%. Then `COc1ccccc1-c1c(CC(=O)Nc2c(C(C)C)cccc2C(C)C)oc(=O)c2ccccc12` [Example 56, N-[2,6-Bis(1-methylethyl)phenyl]-4-(2-methoxyphenyl)-1-oxo-1H-2-benzopyran-3-acetamide], with 98.1%; and `CC(C)c1cccc(C(C)C)c1NC(=O)CC1C(=O)N(C)c2ccc(Cl)cc2N1c1ccccc1` (centres unmarked) [Example 42, N-[2,6-Bis(1-methylethyl)phenyl]-6-chloro-1,2,3,4-tetrahydro-1-methyl-2-oxo-4-phenyl-3-quinoxalineacetamide], with 96.6%. `COc1cc2c(cc1OC)N(C)C(=O)C(CC(=O)Nc1c(C(C)C)cccc1C(C)C)C2c1ccccc1` (centres unmarked) [Example 18, N-[2,6-Bis(1-methylethyl)phenyl]-1,2,3,4-tetrahydro-6,7-dimethoxy-1-methyl-2-oxo-4-phenyl-3-quinolineacetamide]: the inhibition at 1 µM amounted to 97.3%.

On to `CCOc1cccc(OCC)c1NC(=O)Cc1c(-c2ccccc2C)c2cc(Cl)ccc2oc1=O` [Example 88, 6-Chloro-N-(2,6-diethoxyphenyl)-4-(2-methylphenyl)-2-oxo-2H-1-benzopyran-3-acetamide], for which the inhibition at 1 µM is 99.7%. Then `Cc1cccc(NC(=O)[C@H]2[C@H](c3ccc(F)cc3)c3ccccc3C(=O)N2C)c1` (relative stereo) [Example 9, 3,4-trans-4-(4-Fluorophenyl)-1,2,3,4-tetrahydro-2-methyl-N-(3-methylphenyl)-1-oxo-3-isoquinolinecarboxamide], with 90.3%; and `Cc1cc(C)c(NC(=O)Cc2c(-c3ccccc3C)c3cc(Cl)ccc3oc2=O)c(C)c1` [Example 87, 6-Chloro-4-(2-methylphenyl)-2-oxo-N-(2,4,6-trimethylphenyl)-2H-1-benzopyran-3-acetamide], with 99.3%. Then `Cc1cc2c(-c3ccccc3)c(CC(=O)Nc3c(C(C)C)cccc3C(C)C)n(C)c(=O)c2cc1C` [Example 47, N-[2,6-Bis(1-methylethyl)phenyl]-1,2-dihydro-2,6,7-trimethyl-1-oxo-4-phenyl-3-isoquinolineacetamide], with 90.3%. Then `CC(C)c1cccc(C(C)C)c1NC(=O)CC1C(=O)N(C)c2ccc(Cl)cc2C1(C)c1ccccc1` (centres unmarked) [Example 19, N-[2,6-Bis-(1-methylethyl)phenyl]-6-chloro-1,2,3,4-tetrahydro-1,4-dimethyl-2-oxo-4-phenyl-3-quinolineacetamide], with 99.1%. For the compound `Cc1cc(C)c(NC(=O)C[C@@H]2C(=O)N(C)c3ccc(Cl)cc3[C@H]2c2ccccc2)c(C)c1` (relative stereo) [Example 31, 3,4-trans-6-Chloro-1,2,3,4-tetrahydro-1-methyl-2-oxo-4-phenyl-N-(2,4,6-trimethylphenyl)-3-quinolineacetamide], the inhibition at 1 µM amounted to 97.5%. The figure for `Cc1ccc2c(c1)N(c1ccccc1)C(CC(=O)Nc1c(C(C)C)cccc1C(C)C)C(=O)N2C` (centres unmarked) [Example 64, N-[2,6-Bis(1-methylethyl)phenyl]-1,2,3,4-tetrahydro-1,6-dimethyl-2-oxo-4-phenyl-3-quinoxalineacetamide] is 99.5%; for `CC(C)c1cccc(C(C)C)c1NC(=O)Cc1c(-c2ccccc2)c2cc(Cl)ccc2oc1=O` [Example 50, N-[2,6-Bis(1-methylethyl)phenyl]-6-chloro-2-oxo-4-phenyl-2H-1-benzopyran-3-acetamide] it is 95.7%; for `CC(C)c1cccc(C(C)C)c1NC(=O)Cc1cnc2ccc(Cl)cc2c1-c1ccccc1` [Example 57, N-[2,6-Bis(1-methylethyl)phenyl]-6-chloro-4-phenyl-3-quinolineacetamide] it is 99.3%.

For the compound `COc1cc(OC)c(NC(=O)CC2C(=O)N(C)c3ccc(Cl)cc3N2c2ccccc2)c(OC)c1` (centres unmarked) [Example 43, 6-Chloro-1,2,3,4-tetrahydro-1-methyl-2-oxo-4-phenyl-N-(2,4,6-trimethoxyphenyl)-3-quinoxalineacetamide], the inhibition at 1 µM came out at 98.2%. The figure for `CCOc1cccc(OCC)c1NC(=O)Cc1c(-c2ccccc2OC)c2cc(Cl)ccc2oc1=O` [Example 93, 6-Chloro-N-(2,6-diethoxyphenyl)-4-(2-methoxyphenyl)-2-oxo-2H-1-benzopyran-3-acetamide] is 99%. Then `CC(C)c1cccc(C(C)C)c1NC(=O)C[C@H]1C(=O)N(C)c2ccc(Cl)cc2[C@H]1c1ccccc1` (relative stereo) [Example 32, 3,4-cis-N-[2,6-Bis(1-methylethyl)phenyl]-6-chloro-1,2,3,4-tetrahydro-1-methyl-2-oxo-4-phenyl-3-quinolineacetamide], with 96%; and `COc1cc(OC)c(NC(=O)Cc2c(-c3ccccc3)c3cc(Cl)ccc3oc2=O)c(OC)c1` [Example 51, 6-Chloro-2-oxo-4-phenyl-N-(2,4,6-trimethoxyphenyl)-2H-1-benzopyran-3-acetamide], with 98.1%; and `COc1cccc(OC)c1NC(=O)Cc1oc(=O)c2ccc(Cl)cc2c1-c1ccccc1` [Example 76, 6-Chloro-N-(2,6-dimethoxyphenyl)-1-oxo-4-phenyl-1H-2-benzopyran-3-acetamide], with 99.3%. Then `Cc1cc2c(cc1C)N(C)C[C@@H](C(=O)Nc1c(C(C)C)cccc1C(C)C)[C@@H]2c1ccccc1Cl` (relative stereo) [Example 15, 3,4-trans-N-[2,6-Bis(1-methylethyl)phenyl]-4-(2-chlorophenyl)-1,2,3,4-tetrahydro-1,6,7-trimethyl-3-quinolinecarboxamide], with 90.2%.

(Values after patent US5482967A, “Condensed heterocyclic compounds, their production and use” (Takeda Chemical Industries, Ltd., priority 1992, dated 1996).)
